Reference: patent US10870875B2, “Metalloprotein compositions” (Commonwealth Scientific and Industrial Research Organisation, priority 2014, dated 2020)
Changes are numbered by the printed parent chain.

What was measured:
[1] = target: T1, Apis mellifera AmelF3 (SEQ ID NO: 39) variant Y76A A97H (Apis mellifera, UniProt A0ACM8QI31, A116H/Y95A); test: Binding of haem to AmelF3 Y76A A97H; details: sharp Soret peak at 413 nm
T1 sequence (A0ACM8QI31 20-335 Y95A/A116H): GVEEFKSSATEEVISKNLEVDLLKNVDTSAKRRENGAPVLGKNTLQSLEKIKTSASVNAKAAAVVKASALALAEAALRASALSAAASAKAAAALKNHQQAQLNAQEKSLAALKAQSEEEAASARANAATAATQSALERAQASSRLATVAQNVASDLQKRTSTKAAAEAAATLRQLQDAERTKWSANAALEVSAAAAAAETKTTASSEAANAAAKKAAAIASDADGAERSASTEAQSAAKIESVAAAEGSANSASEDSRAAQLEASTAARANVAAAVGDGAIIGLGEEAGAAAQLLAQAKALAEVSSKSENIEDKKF
Protocol: (§1) Site directed mutagenesis of honeybee silk proteins was carried using methods known to the person skilled in the art. For example, to generate AmelF3 Tyr76Ala, the forward primer 5′-[…]-3′ (SEQ ID NO: 80) with the corresponding reverse primer was employed and site directed mutagenesis was carried out using Pfx 50 DNA polymerase from Invitrogen following the Pfx50 manufactures instructions. All AmelF3 mutants were expressed and purified using a similar procedure as the unmodified AmelF3 silk protein. To generate AmelF3 Tyr76His, the forward primer 5′-[…]-3′ (SEQ ID NO: 81) with the corresponding reverse primer was employed. To generate AmelF3 Ala97His, the forward primer 5′-[…]-3′ (SEQ ID NO: 82) was used.
A coordinating His residue was introduced into AmelF3 with Y76A in the a-position of the coiled-coil.

[2] = target: T2, Oecophylla smaragdina silk fibroin 3 (GA3), SEQ ID NO: 11 (Oecophylla smaragdina, UniProt A8IM91); test: Haem b leached into green ant silk GA3 film; format: binding; details: signal at around 400 nm
T2 construct: film
T2 sequence (A8IM91 20-395): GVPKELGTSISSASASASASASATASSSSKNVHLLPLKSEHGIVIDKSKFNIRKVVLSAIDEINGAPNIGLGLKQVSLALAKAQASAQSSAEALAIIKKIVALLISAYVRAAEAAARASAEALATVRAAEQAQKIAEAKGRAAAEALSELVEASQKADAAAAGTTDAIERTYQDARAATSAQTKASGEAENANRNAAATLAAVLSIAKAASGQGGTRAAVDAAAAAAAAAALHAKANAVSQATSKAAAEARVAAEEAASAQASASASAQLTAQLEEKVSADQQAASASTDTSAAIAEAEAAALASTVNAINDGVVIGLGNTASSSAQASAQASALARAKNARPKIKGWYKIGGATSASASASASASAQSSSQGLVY
From the text: (§2) Full length, recombinant honeybee silk proteins (AmelF3) without affinity purification tags, were produced by fermentation in Escherichia coli as described in Weisman et al. (2010). Full length, recombinant Weaver Ant/Green Ant (Oecophylla smaragdina) silk proteins (GA1, GA2, GA3, GA4) without affinity purification tags, were produced by fermentation in Escherichia coli following the same procedures as outlined in Weisman et al. (2010).
(§3) Alternatively, haem b was ‘leached’ into a pre-formed film. The AmelF3 material was formed as described in example 1. The silk material was soaked in a solution of haem b (0.5 mg/mL; haem b in excess) in 70% methanol solution for between 1 and 48 hours followed by washing with 70% methanol to remove any unbound haem b and dried at room temperature.
(§4) Transparent films from the Green Ant (Oecophylla smaragdina) (GA1-4) silk proteins were prepared as described above. Haem b in 70% methanol was leached into the preformed Green Ant silk film as described at Example 3. UV/Vis spectra were collected for Green Ant silk film after haem b had been leached.

[3] = target: T3, Oecophylla smaragdina silk fibroin 1 (GA1), SEQ ID NO: 9 (Oecophylla smaragdina, UniProt A8IM81); test: Haem b leached into green ant silk GA1 film; format: binding; details: signal at around 400 nm
T3 construct: film
T3 sequence (A8IM81 20-391): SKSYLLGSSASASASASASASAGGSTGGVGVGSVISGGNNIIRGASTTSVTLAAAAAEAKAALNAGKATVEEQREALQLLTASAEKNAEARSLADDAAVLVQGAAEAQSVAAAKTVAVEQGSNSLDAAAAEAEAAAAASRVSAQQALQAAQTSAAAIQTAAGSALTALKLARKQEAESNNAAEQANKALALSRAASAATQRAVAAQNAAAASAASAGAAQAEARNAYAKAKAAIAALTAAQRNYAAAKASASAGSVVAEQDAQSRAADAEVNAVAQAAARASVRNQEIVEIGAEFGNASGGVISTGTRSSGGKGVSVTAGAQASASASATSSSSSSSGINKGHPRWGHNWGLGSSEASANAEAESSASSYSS
From the text: as §2, §3, §4

[4] = target: T4, Apis mellifera AmelF3 (SEQ ID NO: 39) variant Tyr76His (Y76H) (Apis mellifera, UniProt A0ACM8QI31, Y95H); test: Binding of haem b to AmelF3 Tyr76His; details: UV/Vis, in solution and film
T4 construct: solution and film
T4 sequence (A0ACM8QI31 20-335 Y95H): T1 sequence (A0ACM8QI31 20-335 Y95A/A116H) with A76H, H97A
Protocol: as §1
The present inventors also mutated Tyr76 to a histidine and investigated the effect the single amino acid substitution had on binding to haem b. […] The sharp peak observed at around 400 nm is indicative of the coordination of an amino acid residue to the iron haem centre.
(§5) A coordinating His residue (His97) was introduced into AmelF3 with Y76H substitution in the a-position of the coiled-coil.

[5] = target: T5, Apis mellifera AmelF3 (SEQ ID NO: 39) variant Y76H A97H (Apis mellifera, UniProt A0ACM8QI31, A116H/Y95H); test: Binding of heme to AmelF3 Y76H A97H; details: Soret peak vs heme ratio
T5 sequence (A0ACM8QI31 20-335 Y95H/A116H): T1 sequence (A0ACM8QI31 20-335 Y95A/A116H) with A76H
Protocol: as §1, §5

C=CC1=C(C)c2cc3[nH]c(cc4nc(cc5[nH]c(cc1n2)c(C)c5CCC(=O)O)C(CCC(=O)O)=C4C)c(C)c3C=C.[Fe] [haem b]
haem coordination (in words) [1]: indicative of histidine coordination
haem binding (in words) [2]: strongly bound haem
haem binding (in words) [3]: strongly bound haem
binding to silk protein (in words) [4]: bound haem b via a co-ordinate bond
number of heme cofactors bound [5]: two
